Experimental data from US9585875B2, “TRPM8 antagonists” (Dompé S.P.A., priority 2011, dated 2017).
Blank lines part the entries; values can stand above or below the molecule they belong to.

Tests used:
[1] = target: T1, TRPM8 (Homo sapiens, UniProt Q7Z2W7); assay: HTS cell-based Ca2+ mobilization assay (FLIPR TETRA) in HEK293/hTRPM8 cells, agonist Cooling Agent 10; set-up: expressed in transfected cells; settings: HEK293/hTRPM8, Cooling Agent 10 at EC80
Text: A functional cell-based assay for the identification of TRPM8 receptor antagonists, optimised to allow high throughput screening at FLIPR^TETRA, was developed in HEK293 cells by stable pure clone selection and functional characterization with a fluorescent calcium sensitive dye.
TRPM8 was cloned into the multiple cloning site of pcDNA3 mammalian expression vector; the obtained construct pcDNA3/hTRPM8 was fully sequence verified and used for the transfection of HEK293 cell line. HEK293 cells stably transfected with TRPM8 gene were maintained in Minimum essential medium. The cells were transfected with the pcDNA3/hTRPM8 vector by electroporation and then selected with medium containing 0.8 mg/ml G418 for 10-15 days.
The following commercial compounds were used as ligands:
Activator: Cooling Agent 10 (Takasago CAS N. 87061-04-9)
Blocker: Capsazepine (SIGMA cat #D_5879)
The experimental activities were performed using FLIPR^TETRA instruments.
HEK293 cells stably transfected with TRPM8 gene were maintained in Minimum essential medium.
The TRPM8 cell line was analysed for the response to a library of compounds using a Ca^2+ mobilization-dependent fluorescence signal in 384 wells microtiter plate format. The analysis was performed using the FLIPR^TETRA (MDC) with the ICCD Camera.
The execution of the assay involved the use of three microtiter plates:
1. Assay plate, containing cells loaded with dye and prepared as follows:
Cells were seeded at 15000 c/well in Poly-D-Lysine coated 384 wells Microtiter Plates in complete medium (25 μl/well).
24 h after seeding, the cell plates were washed with Tyrode assay buffer by the Microplate Washer and 10 μL of Tyrode assay buffer was left in each well.
Cells were then loaded with 10 μL/well of the Fluo-4 NW dye solution by CyBi®-Well pipettor. Each bottle of Fluo4-NW dye (Molecular Probes cat. #F36206, component A) was re-suspended in 8 mL of Tyrode assay buffer and supplemented with 100 μL of water-soluble probenecid (MolecularProbes cat.#F36206, component B).
Dye loaded cell plates were incubated for 1 h at room temperature.
2. Compound Dilution Plate (FIG. 1), containing diluted test compounds, formulated as follows: […]
Column 1: wells containing Assay Buffer plus DMSO 0.5% final
Columns 3-22: wells containing Assay Buffer plus 0.5% DMSO final. To these wells the compounds to be tested were added at 3× concentration.
Column 23: alternating wells of Max Signal Control in second injection (Assay buffer) and Min Signal Control in second injection (Antagonist Capsazepine IC100, 50 μM) in Assay buffer plus 0.5% DMSO final;
Column 24: wells containing Capsazepine (Antagonist) at 8 concentrations in duplicate at final concentrations of 50 μM, 25 μM, 6.25 μM, 3.15 μM, 1.56 μM, 780 nM, […] in Assay buffer plus 0.5% DMSO final.
3. Activator Plate (FIG. 2), containing agonist Cooling Agent 10 at EC80, formulated as follows:
Column 1: Cooling Agent 10 (Agonist) at 8 concentrations dose response in duplicate at final concentrations of 100 μM, 31.6 μM, 10 μM, 3.16 μM, 1 μM, 316 nM, 100 nM, 31.6 nM in Assay buffer;
Columns 2-24: Cooling Agent 10 (Agonist) at EC80 (3 fold concentrated, 20 μM final) in Assay buffer.
The test was carried out according to a procedure comprising the following steps:
1. The samples contained in the wells of the Compound Plate were added to the corresponding wells of the Assay Plate by the FLIPR^TETRA, thus resulting in the addition in Columns 3-22 of the test compounds at 3× concentration to the cells of the assay plates. No mixing was performed in the assay wells and the signal of the emitted fluorescence was recorded for 300 seconds. 2. The samples contained in the wells of the Activator Plate were added to the corresponding wells of the Assay Plate by the FLIPR^TETRA, thus resulting in the addition in Columns 3-22 of the Assay Plate of the agonist compound in addition to the test compounds. The signal of the emitted fluorescence was recorded for 180 seconds.

[2] = system: Male Wistar rats; assay: Chronic constriction injury model, mechanical allodynia (Dynamic Plantar Aesthesiometer); format: in vivo, rat
Method: (§1) Male Wistar rats (220-250 g, Harlan Italy) were used (n=60). Animals were housed in a room with controlled temperature (22±1° C.), humidity (60±10%) and light (12 h per day) for at least a week before being used. Rats were randomly divided into sham, control and treatment groups; ten animals per group were used. All animal experiments were complied with the Italian (D.L. no.116 of Jan. 27, 1992) and associated guidelines in the European Communities Council (Directive of Nov. 24, 1986, 86/609/ECC).
(§2) Antiallodynic effects were assessed at 1 and 3 h post dose. Control animals received vehicle alone (0.5 ml/iv/rat; 10% solutol-NMP and 90% PBS).
(§3) Neuropathic pain behavior was induced by ligation of the sciatic nerve according to the method described by Bennett and Xie [Bennett G. J. and Xie Y. K. A peripheral mononeuropathy in rat that produces disorders of pain sensation like those seen in man, Pain, (1988) 33:87-107]. Briefly, rats were anaesthetized (100 mg/kg ketamine and 10 mg/kg xylazine i.p.) and the left sciatic nerve was exposed at the level of the thigh by blunt dissection through the biceps femoris. Proximal to the sciatic's trifurcation, about 12 mm of nerve was freed of adhering tissue and four ligatures were loosely tied around it with about 1 mm spacing so that the epineural circulation was preserved. The length of nerve thus affected was 6-8 mm long. The animals were allowed to recover and used the day after the surgery. Sham animals represent rats operated but not ligated.
To assess for changes in sensation or in the development of mechanical allodynia, sensitivity to tactile stimulation was measured using the Dynamic Plantar Aesthesiometer (DPA, Ugo Basile, Italy). Ligated animals were placed in a chamber with a mesh metal floor covered by a plastic dome that enabled the animal to walk freely, but not to jump. The mechanical stimulus was then delivered in the mid-plantar skin of the hind paw. The cut-off was fixed at 50 g, while the increasing force rate (ramp duration) was settled at 20 sec. […]

[3] = system: Male Wistar rats; assay: Chronic constriction injury model, cold allodynia (acetone); format: in vivo, rat
Method: as §1, §2, §3
Cold sensitivity was measured as the number of foot withdrawal responses after application of acetone to the dorsal surface of the paw. A drop of acetone (15-20° C.) was applied to the dorsal surface of the ligated paw with a syringe connected to a thin polyethylene tube while the rats were standing on a metal mesh. A brisk foot withdrawal response, after the spread of acetone over the dorsal surface of the paw, was considered as a sign of cold allodynia. Basal response was measured on the days before treatment (2nd, 6th and 13th). […]

[4] = target: TRPV1 (Homo sapiens, UniProt Q8NER1); assay: Calcium influx counterassay, agonist capsaicin; format: cell-based; settings: 0.1 μM capsaicin = 100%, read-out: Normalized % inhibition (TRPV1)
Method: In order to address more specifically the potential selectivity issues, a counterassay was carried out for 10, 45 and 118 against TRPV1 and TRPV4 ion channels, both involved in the nociception (Jhaveri M D, et al 2005. Eur. J. Neurosci. 22 (2): 361-70, Brierley S M et al, 2008, Gastroenterology. 2008 June; 134(7):2059-69. ). The ability of each test compound to act as an antagonist of TRPV1 was evaluated with a calcium influx assay.

[5] = target: TRPV4 (Homo sapiens, UniProt Q9HBA0); assay: Calcium influx counterassay, agonist GSK1016790A; format: cell-based; settings: 10 μM GSK1016790A = 100%, read-out: Normalized % inhibition (TRPV4)
Method: In parallel, the ability of each test compound to act as an antagonist of TRPV4 was evaluated with a calcium influx assay.

[6] = Log D; format: physicochemical
[7] = target: T1, TRPM8
Text: Values were considered significant if the test compound mean was three or more standard deviations away from the positive control agonist mean.

[8] = 10 mg/kg i.v., day 7, 1 hour post-dose
[9] = day 14 after surgery, 1 h post-dose (Compound 118: 10 mg/kg i.v.)
[10] = 10 mg/kg i.v., day 7 after nerve injury, 1 hour post-dose

T1 sequence (Q7Z2W7 whole entry): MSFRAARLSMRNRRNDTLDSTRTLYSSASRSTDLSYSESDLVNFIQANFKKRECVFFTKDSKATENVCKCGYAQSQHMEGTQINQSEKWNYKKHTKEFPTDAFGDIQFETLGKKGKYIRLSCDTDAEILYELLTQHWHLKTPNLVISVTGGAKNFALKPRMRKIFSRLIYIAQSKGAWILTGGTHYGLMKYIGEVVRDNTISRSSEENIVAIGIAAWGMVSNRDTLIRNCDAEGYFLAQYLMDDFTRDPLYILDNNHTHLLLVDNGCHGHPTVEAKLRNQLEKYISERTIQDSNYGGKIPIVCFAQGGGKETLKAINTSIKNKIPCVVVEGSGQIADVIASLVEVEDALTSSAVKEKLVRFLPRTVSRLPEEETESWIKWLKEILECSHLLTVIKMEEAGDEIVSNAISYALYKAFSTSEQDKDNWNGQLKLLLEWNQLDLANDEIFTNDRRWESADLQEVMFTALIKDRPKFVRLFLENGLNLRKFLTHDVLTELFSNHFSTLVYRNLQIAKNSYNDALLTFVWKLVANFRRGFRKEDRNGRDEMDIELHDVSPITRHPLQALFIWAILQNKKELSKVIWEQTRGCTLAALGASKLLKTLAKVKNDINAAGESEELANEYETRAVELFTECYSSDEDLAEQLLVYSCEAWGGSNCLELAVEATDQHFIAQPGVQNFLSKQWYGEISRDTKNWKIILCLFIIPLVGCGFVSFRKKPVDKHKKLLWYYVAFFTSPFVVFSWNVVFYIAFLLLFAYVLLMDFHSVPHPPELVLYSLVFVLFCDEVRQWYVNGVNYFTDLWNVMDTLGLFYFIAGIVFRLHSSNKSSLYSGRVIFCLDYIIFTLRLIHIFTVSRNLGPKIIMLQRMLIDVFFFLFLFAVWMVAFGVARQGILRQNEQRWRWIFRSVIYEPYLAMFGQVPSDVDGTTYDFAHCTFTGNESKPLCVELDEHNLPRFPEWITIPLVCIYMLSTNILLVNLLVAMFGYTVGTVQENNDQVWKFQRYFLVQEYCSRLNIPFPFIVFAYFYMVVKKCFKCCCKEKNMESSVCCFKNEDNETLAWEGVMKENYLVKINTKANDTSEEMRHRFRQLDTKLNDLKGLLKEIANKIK
TRPV4, sequence (Q9HBA0 whole entry, species assumed): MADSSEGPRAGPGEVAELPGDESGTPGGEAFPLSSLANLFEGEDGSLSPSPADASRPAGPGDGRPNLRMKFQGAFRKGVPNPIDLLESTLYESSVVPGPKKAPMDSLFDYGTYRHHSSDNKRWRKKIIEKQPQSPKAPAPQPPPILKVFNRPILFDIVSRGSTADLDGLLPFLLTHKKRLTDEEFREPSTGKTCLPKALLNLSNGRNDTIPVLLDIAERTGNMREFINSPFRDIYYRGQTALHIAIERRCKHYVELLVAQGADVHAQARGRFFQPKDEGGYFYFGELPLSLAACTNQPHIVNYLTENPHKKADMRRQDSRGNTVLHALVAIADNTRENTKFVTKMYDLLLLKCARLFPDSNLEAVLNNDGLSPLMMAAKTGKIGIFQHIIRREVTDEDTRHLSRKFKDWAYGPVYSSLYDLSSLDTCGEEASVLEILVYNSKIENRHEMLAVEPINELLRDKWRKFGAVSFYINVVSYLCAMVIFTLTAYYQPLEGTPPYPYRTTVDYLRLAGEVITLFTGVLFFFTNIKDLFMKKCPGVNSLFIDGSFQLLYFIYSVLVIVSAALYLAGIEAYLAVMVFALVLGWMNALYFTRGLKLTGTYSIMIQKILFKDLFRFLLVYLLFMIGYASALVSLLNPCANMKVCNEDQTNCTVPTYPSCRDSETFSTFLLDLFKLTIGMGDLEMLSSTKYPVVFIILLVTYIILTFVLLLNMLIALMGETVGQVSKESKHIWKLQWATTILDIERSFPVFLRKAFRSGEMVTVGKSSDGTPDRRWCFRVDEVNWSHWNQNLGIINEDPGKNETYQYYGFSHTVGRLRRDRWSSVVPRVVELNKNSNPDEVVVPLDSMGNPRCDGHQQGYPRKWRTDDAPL
TRPV1, sequence (Q8NER1 whole entry, species assumed): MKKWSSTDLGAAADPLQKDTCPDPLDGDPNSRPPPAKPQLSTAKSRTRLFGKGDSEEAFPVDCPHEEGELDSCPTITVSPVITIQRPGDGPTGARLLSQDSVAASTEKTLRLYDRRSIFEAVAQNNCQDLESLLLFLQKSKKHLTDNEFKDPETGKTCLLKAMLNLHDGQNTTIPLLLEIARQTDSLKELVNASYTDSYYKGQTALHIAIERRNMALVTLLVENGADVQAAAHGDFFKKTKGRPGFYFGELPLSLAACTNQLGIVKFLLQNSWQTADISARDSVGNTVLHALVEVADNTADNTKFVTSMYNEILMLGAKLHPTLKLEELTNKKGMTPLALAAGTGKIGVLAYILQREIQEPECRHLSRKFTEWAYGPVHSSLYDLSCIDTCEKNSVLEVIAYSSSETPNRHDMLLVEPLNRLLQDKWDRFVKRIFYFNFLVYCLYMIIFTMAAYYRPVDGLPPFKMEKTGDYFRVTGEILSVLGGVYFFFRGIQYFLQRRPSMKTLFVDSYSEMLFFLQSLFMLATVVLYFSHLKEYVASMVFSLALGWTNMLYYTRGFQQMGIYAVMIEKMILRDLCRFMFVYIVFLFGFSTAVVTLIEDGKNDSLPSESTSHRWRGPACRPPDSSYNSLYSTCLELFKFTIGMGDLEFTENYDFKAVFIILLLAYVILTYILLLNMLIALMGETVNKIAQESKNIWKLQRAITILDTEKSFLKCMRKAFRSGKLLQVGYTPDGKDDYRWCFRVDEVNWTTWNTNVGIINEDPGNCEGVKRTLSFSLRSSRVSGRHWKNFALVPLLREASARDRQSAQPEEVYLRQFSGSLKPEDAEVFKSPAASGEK

SMILES: Cc1ccc(-c2nc(OCc3ccc(Cl)cc3)c(C(=O)O)s2)cc1 [Compound 83, sodium 4-[(4-chlorobenzyl)oxy]-2-(4-methylphenyl)-1,3-thiazole-5-carboxylate]
IC50 [1]: < 10 µM

SMILES: Cc1ccc(-c2nc(O)c(C(=O)O)s2)cc1 [Compound 2, 4-hydroxy-2-(4-methylphenyl)-1,3-thiazole-5-carboxylic acid]
IC50 [1]: < 10 µM

SMILES: CCOC(=O)c1sc(-c2ccc(Cl)cc2)nc1OCCN [Compound 41, ethyl 4-(2-aminoethoxy)-2-(4-chlorophenyl)-1,3-thiazole-5-carboxylate]
IC50 [1]: < 10 µM

SMILES: CCOC(=O)c1sc(-c2ccc(C)cc2)nc1NCCN [Compound 67, ethyl 4-[(2-aminoethyl)amino]-2-(4-methylphenyl)-1,3-thiazole-5-carboxylate]
IC50 [1]: < 10 µM

Now from value to molecule, other results behind:

IC50 [1]: < 10 µM
SMILES: CCOC(=O)c1sc(-c2ccc(Cl)cc2)nc1NCCNC [Compound 68, ethyl 2-(4-chlorophenyl)-4-{[2-(methylamino)ethyl]amino}-1,3-thiazole-5-carboxylate]

IC50 [1]: < 10 µM
SMILES: CCOC(=O)c1sc(-c2ccccc2)nc1OCc1ccc(Cl)cc1 [Compound 27, ethyl 4-[(4-chlorobenzyl)oxy]-2-phenyl-1,3-thiazole-5-carboxylate]

IC50 [1]: < 10 µM
SMILES: CCOC(=O)c1sc(-c2ccccc2)nc1OC(=O)c1ccc(C(F)(F)F)cc1 [Compound 36, ethyl 2-phenyl-4-{[4-(trifluoromethyl)benzoyl]oxy}-1,3-thiazole-5-carboxylate]

IC50 [1]: < 10 µM
SMILES: CCOC(=O)c1sc(-c2ccc(Cl)cc2)nc1NCCN [Compound 70, ethyl 4-[(2-aminoethyl)amino]-2-(4-chlorophenyl)-1,3-thiazole-5-carboxylate]

inhibition at 1 µM ([4]; Test Conc. 1 uM): 1.2%
inhibition at 10 µM ([4]; Test Conc. 10 uM): 2.3%
inhibition at 1 µM ([5]; Test Conc. 1 uM): 2%
inhibition at 10 µM ([5]; Test Conc. 10 uM): 8.9%
log D values [6]: low
antagonist activity in calcium influx assay [7]: confirmed the antagonist activity
SMILES: CCn1nnc(-c2sc(-c3cccc(F)c3)nc2O)n1 [Compound 118, 2-(3-fluorophenyl)-5-(2-ethyl-2H-tetrazol-5-yl)-1,3-thiazol-4-ol]
mechanical allodynia [2, 8]: significantly attenuated
inhibition of mechanical allodynia [2, 9]: no inhibition
cold allodynia [3, 8]: significantly attenuated
inhibition of cold allodynia [3, 9]: 52 % of inhibition

IC50 [1]: < 10 µM
SMILES: O=C(O)c1sc(-c2ccc(Cl)cc2)nc1OCc1ccc(Cl)cc1 [Compound 84, sodium 4-(4-chlorobenzyloxy)-2-(4-chlorophenyl)-1,3-thiazole-5-carboxylate]

IC50 [1]: < 10 µM
SMILES: O=C(O)c1sc(-c2ccc(Cl)cc2)nc1O [Compound 1, 2-(4-chlorophenyl)-4-hydroxy-1,3-thiazole-5-carboxylic acid]
inhibition of mechanical allodynia [2, 10]: 26 % of inhibition
inhibition of cold allodynia [3, 10]: 39 % of inhibition
